Measured values: patent US10736873B2, “Medical uses of N-(2-aminoethyl)-N-(4-benzyloxy)-3-methoxybenzyl)thiophene-2-formamide hydrochloride” (The Second Xiangya Hospital, Central South University, priority 2017, dated 2020)

How the values were obtained:
[1] = system: Scid-HepG2-subcutaneous tumor; assay: Scid-HepG2 subcutaneous tumor model in NOD/SCID nude mice; format: in vivo; conditions: for Relative volume of Scid-HepG2-subcutaneous tumor: 2 mg/kg i.p. 1 time/day
Experimental: (§1) Using the hepatoma cell line HepG2, 5×10^6 cells were injected into the right flank of each NOD/SCID nude mouse (10 in total) respectively. When the tumor grows to a volume of about 80 mm^3, the mice were randomly divided into control group and therapeutic intervention group, with 5 mice in each group. Therapeutic Intervention Group: M8-B hydrochloride was dissolved in DMSO to form an injectable medication, intraperitoneally injected, at a dose of 2 mg/kg (wherein 2 mg was the mass of M8-B hydrochloride), 1 time/day. Control Group: The blank solvent DMSO was intraperitoneally injected, at a dose of 2 mg/kg, 1 time/day. Tumor size was measured by volume=½×length×width^2, and the mice were sacrificed at week 10 to compare survival rate and tumor volume. The experimental results of this example are as follows: Tumor size was measured by volume=½×length×width^2, and mice were sacrificed at week 10 to compare survival rate and tumor volume. The experimental results of this example are as follows: In Table 1, DMSO represents the relative volume of Scid-HepG2-subcutaneous tumor in the control group of blank solvent, M8-B represents the relative volume of Scid-HepG2-subcutaneous tumor in the therapeutic intervention group, and P value represents the difference between the relative volumes of Scid-HepG2-subcutaneous tumors in the control group and therapeutic intervention group. The tumor size on the first day of administration is 100%.

[2] = system: Scid-Huh7-subcutaneous tumor; assay: Scid-Huh7 subcutaneous tumor model in NOD/SCID nude mice; format: in vivo; conditions: for Relative volume of Scid-Huh7-subcutaneous tumor: 2 mg/kg i.p. 1 time/day
Experimental: as §1, with “Huh7,” for “HepG2,”, “6” for “10 to compare survival rate and tumor volume. The experimental results of this example are as follows: Tumor size was measured by volume=½×length×width^2, and mice were sacrificed at week 10”, “2,” for “1,”, “Scid-Huh7-subcutaneous” for “Scid-HepG2-subcutaneous”

[3] = week 0, tumor size on first day of administration = 100%
[4] = week 1, first day of administration = 100%
[5] = week 2, first day of administration = 100%
[6] = week 3, first day of administration = 100%
[7] = week 4, first day of administration = 100%
[8] = week 5, first day of administration = 100%
[9] = week 6, first day of administration = 100%

## COc1cc(CN(CCN)C(=O)c2cccs2)ccc1OCc1ccccc1.Cl [M8B]
[1]; versus DMSO control, results of table 1
  changes of tumor volume in mice (HepG2 tumors): significantly slower
[1]; [3]
  Relative volume of Scid-HepG2-subcutaneous tumor: 100.00%
[1]; [4]
  Relative volume of Scid-HepG2-subcutaneous tumor: 151.94%
[1]; [5]
  Relative volume of Scid-HepG2-subcutaneous tumor: 212.44%
[1]; [6]
  Relative volume of Scid-HepG2-subcutaneous tumor: 273.9%
[1]; [7]
  Relative volume of Scid-HepG2-subcutaneous tumor: 349.0%
[1]; [8]
  Relative volume of Scid-HepG2-subcutaneous tumor: 416.66%
[1]; [9]
  Relative volume of Scid-HepG2-subcutaneous tumor: 479.2%
[1]; week 7, first day of administration = 100%
  Relative volume of Scid-HepG2-subcutaneous tumor: 590.68%
[1]; week 8, first day of administration = 100%
  Relative volume of Scid-HepG2-subcutaneous tumor: 1108.50%
[1]; week 9, first day of administration = 100%
  Relative volume of Scid-HepG2-subcutaneous tumor: 700.92%
[1]; week 10, first day of administration = 100%
  Relative volume of Scid-HepG2-subcutaneous tumor: 734.87%
[2]; versus DMSO control, results of table 2
  changes of tumor volume in mice (HuH7 tumors): significantly slower
[2]; [3]
  Relative volume of Scid-Huh7-subcutaneous tumor: 100.00%
[2]; [4]
  Relative volume of Scid-Huh7-subcutaneous tumor: 143.85%
[2]; [5]
  Relative volume of Scid-Huh7-subcutaneous tumor: 205.0%
[2]; [6]
  Relative volume of Scid-Huh7-subcutaneous tumor: 381.41%
[2]; [7]
  Relative volume of Scid-Huh7-subcutaneous tumor: 484.0%
[2]; [8]
  Relative volume of Scid-Huh7-subcutaneous tumor: 789.89%
[2]; [9]
  Relative volume of Scid-Huh7-subcutaneous tumor: 928.01%
